In PMC3297592, “Metabolism of Phosphatidylinositol 4-Kinase IIIα-Dependent PI4P Is Subverted by HCV and Is Targeted by a 4-Anilino Quinazoline with Antiviral Activity” (PLoS Pathogens, 2012):

Key:
Test in all cases: ADP-Glo kinase assay
Type in all cases: biochemical
[1] = biological target: T1, PI4KIIIα-CD (catalytic domain of PI4KIIIα) (Homo sapiens, UniProt P42356)
T1 construct: gene PI4KA; catalytic domain from G873 to the natural C-terminus, N-terminal His6 tag (pFastBac HT-B) kept, Sf9 / baculovirus, Ni-Sepharose; primer adds start ATG GGG (MGMMQCVI...); ends ...NDIPY
T1 sequence (P42356 931-2102): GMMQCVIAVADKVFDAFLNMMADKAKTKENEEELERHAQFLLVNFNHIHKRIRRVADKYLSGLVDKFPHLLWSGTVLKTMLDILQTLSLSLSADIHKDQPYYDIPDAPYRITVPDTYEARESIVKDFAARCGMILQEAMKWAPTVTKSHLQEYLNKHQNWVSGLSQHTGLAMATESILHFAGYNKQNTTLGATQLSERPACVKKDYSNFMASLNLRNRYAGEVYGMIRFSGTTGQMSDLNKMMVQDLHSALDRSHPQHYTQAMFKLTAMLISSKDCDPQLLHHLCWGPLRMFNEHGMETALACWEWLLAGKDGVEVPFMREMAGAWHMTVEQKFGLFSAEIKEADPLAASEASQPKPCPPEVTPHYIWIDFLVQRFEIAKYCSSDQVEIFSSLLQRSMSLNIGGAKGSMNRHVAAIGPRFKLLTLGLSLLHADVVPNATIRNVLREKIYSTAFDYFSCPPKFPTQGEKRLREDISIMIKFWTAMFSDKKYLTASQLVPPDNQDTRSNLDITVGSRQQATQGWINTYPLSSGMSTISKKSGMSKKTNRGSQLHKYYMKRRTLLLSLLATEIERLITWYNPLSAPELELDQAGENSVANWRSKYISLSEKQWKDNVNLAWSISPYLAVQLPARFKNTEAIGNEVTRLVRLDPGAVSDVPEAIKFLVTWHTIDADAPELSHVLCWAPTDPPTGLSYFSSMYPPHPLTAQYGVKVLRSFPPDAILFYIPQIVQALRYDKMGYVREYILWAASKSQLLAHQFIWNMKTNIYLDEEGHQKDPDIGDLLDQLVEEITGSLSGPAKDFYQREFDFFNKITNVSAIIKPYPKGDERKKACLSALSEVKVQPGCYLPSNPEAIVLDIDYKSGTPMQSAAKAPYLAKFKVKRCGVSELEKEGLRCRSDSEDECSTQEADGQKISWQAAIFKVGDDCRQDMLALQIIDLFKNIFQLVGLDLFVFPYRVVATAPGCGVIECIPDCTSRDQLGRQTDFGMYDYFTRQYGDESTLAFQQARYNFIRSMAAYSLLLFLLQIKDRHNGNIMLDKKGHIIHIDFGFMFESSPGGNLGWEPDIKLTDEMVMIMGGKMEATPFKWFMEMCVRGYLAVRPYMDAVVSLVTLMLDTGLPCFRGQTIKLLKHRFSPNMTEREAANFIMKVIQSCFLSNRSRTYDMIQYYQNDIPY

PI3Kα (p110α/p85α) = biological target: T2, PI3Kα (p110α/p85α) (Homo sapiens, UniProt P42336)
T2 construct: gene PIK3CA; commercial purified p110α/p85α heterodimer (Millipore); with Phosphatidylinositol 3-kinase regulatory subunit alpha
T2 sequence (P42336 whole entry): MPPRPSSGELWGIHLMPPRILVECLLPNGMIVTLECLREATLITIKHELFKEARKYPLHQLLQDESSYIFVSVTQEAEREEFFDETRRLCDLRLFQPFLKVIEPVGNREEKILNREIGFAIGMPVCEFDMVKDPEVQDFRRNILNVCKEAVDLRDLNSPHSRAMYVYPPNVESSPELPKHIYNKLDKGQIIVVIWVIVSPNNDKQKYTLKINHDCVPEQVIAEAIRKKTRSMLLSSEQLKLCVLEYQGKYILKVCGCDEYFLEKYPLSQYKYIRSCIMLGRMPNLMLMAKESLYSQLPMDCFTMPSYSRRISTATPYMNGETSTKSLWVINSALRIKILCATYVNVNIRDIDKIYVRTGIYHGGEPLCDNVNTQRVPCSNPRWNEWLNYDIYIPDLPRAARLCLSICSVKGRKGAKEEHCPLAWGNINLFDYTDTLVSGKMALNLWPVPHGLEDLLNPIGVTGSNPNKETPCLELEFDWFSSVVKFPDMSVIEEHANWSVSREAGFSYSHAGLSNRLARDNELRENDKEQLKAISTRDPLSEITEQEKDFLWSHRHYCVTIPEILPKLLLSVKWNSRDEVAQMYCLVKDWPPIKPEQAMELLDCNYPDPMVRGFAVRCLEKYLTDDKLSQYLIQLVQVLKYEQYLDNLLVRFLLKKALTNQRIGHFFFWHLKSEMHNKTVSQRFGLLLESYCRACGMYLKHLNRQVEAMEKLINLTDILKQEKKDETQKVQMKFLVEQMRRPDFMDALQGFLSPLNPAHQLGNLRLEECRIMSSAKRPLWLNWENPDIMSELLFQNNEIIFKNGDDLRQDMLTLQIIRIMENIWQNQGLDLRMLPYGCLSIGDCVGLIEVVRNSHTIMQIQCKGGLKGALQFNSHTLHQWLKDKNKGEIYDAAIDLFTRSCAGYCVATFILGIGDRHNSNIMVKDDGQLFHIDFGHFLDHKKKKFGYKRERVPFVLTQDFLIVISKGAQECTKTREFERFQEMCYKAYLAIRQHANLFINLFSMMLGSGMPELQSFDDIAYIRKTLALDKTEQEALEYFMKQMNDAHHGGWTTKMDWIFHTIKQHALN
T2 sequence (P27986 2-724 partner): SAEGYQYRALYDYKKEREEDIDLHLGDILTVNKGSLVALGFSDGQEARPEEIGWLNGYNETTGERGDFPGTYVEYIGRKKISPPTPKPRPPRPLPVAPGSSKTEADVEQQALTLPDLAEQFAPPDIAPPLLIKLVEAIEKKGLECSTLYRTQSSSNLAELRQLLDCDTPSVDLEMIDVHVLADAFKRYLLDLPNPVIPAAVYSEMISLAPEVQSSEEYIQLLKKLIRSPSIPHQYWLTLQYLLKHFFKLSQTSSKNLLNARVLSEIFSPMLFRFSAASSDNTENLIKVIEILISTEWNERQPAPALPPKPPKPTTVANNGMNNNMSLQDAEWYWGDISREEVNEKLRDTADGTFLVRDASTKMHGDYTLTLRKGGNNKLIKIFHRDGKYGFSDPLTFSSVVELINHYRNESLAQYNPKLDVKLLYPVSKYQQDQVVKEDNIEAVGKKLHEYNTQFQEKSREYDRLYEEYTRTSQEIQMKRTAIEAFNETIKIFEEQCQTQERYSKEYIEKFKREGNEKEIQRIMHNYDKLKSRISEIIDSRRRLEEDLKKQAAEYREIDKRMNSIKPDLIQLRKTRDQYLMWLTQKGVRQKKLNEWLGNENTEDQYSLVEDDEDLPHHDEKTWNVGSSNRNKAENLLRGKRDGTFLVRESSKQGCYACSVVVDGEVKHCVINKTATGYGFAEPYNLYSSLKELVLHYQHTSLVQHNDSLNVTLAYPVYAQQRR

PI3Kβ (p110β/p85α) = biological target: T3, PI3Kβ (p110β/p85α) (Homo sapiens, UniProt P42338)
T3 construct: gene PIK3CB; commercial purified p110β/p85α heterodimer (Millipore); with Phosphatidylinositol 3-kinase regulatory subunit alpha
T3 sequence (P42338 whole entry): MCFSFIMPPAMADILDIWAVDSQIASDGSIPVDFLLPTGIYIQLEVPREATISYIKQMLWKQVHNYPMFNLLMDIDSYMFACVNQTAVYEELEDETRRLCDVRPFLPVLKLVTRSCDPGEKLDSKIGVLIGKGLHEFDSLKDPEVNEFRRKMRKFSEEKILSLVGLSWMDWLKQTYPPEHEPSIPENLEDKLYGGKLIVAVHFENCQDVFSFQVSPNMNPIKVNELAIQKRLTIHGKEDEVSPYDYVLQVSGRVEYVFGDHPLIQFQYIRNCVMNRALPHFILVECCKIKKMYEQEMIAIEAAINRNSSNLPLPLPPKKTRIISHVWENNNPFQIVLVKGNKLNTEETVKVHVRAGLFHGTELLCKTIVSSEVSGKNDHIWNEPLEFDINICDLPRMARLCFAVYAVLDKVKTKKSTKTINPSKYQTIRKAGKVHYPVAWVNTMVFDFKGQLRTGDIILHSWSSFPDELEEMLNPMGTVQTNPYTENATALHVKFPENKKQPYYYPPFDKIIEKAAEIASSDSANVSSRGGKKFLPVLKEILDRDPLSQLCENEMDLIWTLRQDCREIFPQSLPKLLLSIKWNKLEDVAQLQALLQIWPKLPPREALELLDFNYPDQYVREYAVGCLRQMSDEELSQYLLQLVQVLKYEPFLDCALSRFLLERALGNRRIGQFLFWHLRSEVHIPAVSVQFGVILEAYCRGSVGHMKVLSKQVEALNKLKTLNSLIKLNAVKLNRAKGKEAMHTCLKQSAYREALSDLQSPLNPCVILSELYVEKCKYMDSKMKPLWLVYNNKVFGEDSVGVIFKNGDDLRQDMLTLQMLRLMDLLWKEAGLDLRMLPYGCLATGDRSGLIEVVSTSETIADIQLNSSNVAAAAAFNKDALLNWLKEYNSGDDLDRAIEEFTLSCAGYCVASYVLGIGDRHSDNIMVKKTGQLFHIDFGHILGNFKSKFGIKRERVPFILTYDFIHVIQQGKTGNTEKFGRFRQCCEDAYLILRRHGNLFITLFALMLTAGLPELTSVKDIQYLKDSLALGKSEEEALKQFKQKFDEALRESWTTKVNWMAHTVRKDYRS
T3 sequence (P27986 2-724 partner): as the sequence (P27986 2-724 partner) above

Structure (SMILES): OCc1ccc(-c2ccc3ncnc(Nc4ccc(N5CCOCC5)cc4)c3c2)o1 [AL-9]
- IC50 [1]: 570 nM
- IC50 (PI3Kα (p110α/p85α)): 1100 nM
- inhibition at 10 µM (PI3Kβ (p110β/p85α)): 40%
